The values that follow are results of earlier work, collected in publication PMC7582876, “Antiproliferative Properties of a Few Auranofin-Related Gold(I) and Silver(I) Complexes in Leukemia Cells and their Interferences with the Ubiquitin Proteasome System” (Molecules, 2020).

Each structure is given as a SMILES string.

The data set concerns CEM/ADR5000 cells. Further details: method as in PMID 18413831. Conditions: ref [27]; cited from earlier work.

`COc1cccc2c1C(=O)c1c(O)c3c(c(O)c1C2=O)C[C@@](O)(C(=O)CO)C[C@@H]3O[C@H]1C[C@H](N)[C@H](O)[C@H](C)O1` [doxorubicin, Doxorubicin]: the resistance to doxorubicin entry is listed as “more than 1000 fold”.
